This is an account of results in publication PMC6459484, “Synthetic surfactin analogues have improved anti-PEDV properties” (PLoS ONE, 2019).

Converted amounts (≈) assume the structure as drawn. Square brackets hold non-standard residues; d marks the D form. Peptide text beside a SMILES is read from it. * marks the point of attachment. Palmitoyl = CCCCCCCCCCCCCCCC(=O)*

The subject of one data set is PEDV CV777. Kind of data set: Plaque reduction assay (anti-PEDV activity). The format is cell-based, Porcine epidemic diarrhea virus. The procedure: Cercopithecus aethiops kidney epithelial cells (Vero, ATCC, CCL-81) were cultured in high glucose DMEM (Gibco, US), supplemented with 10% fetal bovine serum (FBS, GIBCO), at 37 °C in a 5% CO2 humidified atmosphere. Cells were routinely seeded at a density of 2×10^5 /mL in plastic tissue culture flasks (25 cm^2 flasks, Corning, USA) and passaged every 3–4 days. PEDV CV777 was provided by the Jiangsu Academy of Agricultural Sciences (JAAS).
Vero cells were seeded at 2 × 10^5 cells/well in 24-well tissue culture plates and incubated 18–24 h at 37 °C until approximately 95% confluency was reached. 100 PFU of PEDV mixed with an equal volume of SLP in DMEM or DMEM alone were incubated 10 minutes at 37 °C, then added into the wells of the Vero cells and incubated 30 minutes at 4 °C. Cells were washed 3 times with DMEM then overlaid with DMEM/1% agar and incubated 72 hours at 37 °C. The cells were fixed with 4% formaldehyde, then stained with 0.1% crystal violet after the agar overlay was removed. The data are representative of 3 biological replicates and each plaque assay was performed in triplicate and values are expressed as means ± the standard deviation. Curve fitting and EC50 were calculated with GraphPad Prism 6 using the log[inhibitor] vs. response equation.
The SLPs were tested for anti-PEDV activity using a plaque reduction assay. Serial dilutions of SLPs were incubated with an equal volume of PEDV then aliquoted onto precooled cells in 12-well plates. After the virus has adsorbed to the cells at 4 °C, SLPs were washed away. The adsorbed virus particles were then counted by plaque forming assays (Fig 2A). The results were fitted to a sigmoid-curve and plotted Fig 2B. All SLPs have potent anti-PEDV effects above 50 μg/ml, but differences in their anti-PEDV effect.
Fig 2 Anti-PEDV activities of lipopeptides. (A) PEDV was incubated with series concentrations of SLPs for 10 minutes at 37 °C. After washing cells of unadsorbed virus, the remaining infectious particles was detected by plaque assay. (B) Anti-PEDV activity (% remaining PFU) plotted as a function of lipopeptide concentration. The results of three independent experiments are shown as means ± standard deviation. 100% represents plaque counts in the control (no lipopeptide) sample.
On the technique in general: In a plaque reduction assay, fewer plaques than in the control indicate reduced infectivity or spread.

The subject of another data set is porcine RBCs. In kind it is cell-based. The settings on record: for CC50 (50% cytotoxicity concentration, hemolysis): red cells of porcine, 1 h. The procedure: Hemolytic activity was measured according to the methods described in Jingdan, with some modifications. Briefly, serial dilutions of SLPs were added to 200 uL of a 1% suspension of porcine RBCs in PBS, followed by incubation for 1 h at 37 °C. Cells were centrifuged at 1000 g for 10 min, then 100 uL of each supernatant was transferred to wells of a 96-well plate. The optical density at 540 nm was measured using a microplate reader (Infinite 200 PRO, Tecan Group Ltd., Switzerland) and % hemolysis was calculated using the formula: Hemolysis(%)=ODS-ODB/ODP-ODB×100% where ODS, ODB, and ODP represent the optical density of the SLP-treated samples, negative control and positive control, respectively. 1% Triton X-100 was used for the positive control. Each sample was run in triplicate.
Fig 3 Hemolytic activity of lipopeptides. (A) The indicated concentration of SLPs were added to a 1% porcine RBC suspension in PBS, followed by incubation for 1 h at 37 °C and centrifugation. Pictures were taken after collecting a portion of the supernatant for quantification of hemolysis. (B) Hemolytic curve. Hemolysis (measured at OD540) is shown as a function of SLP concentration. 100% represents the OD obtained using 0.1% Triton X-100-treated red blood cells.

Data set [1] can be described thus: HPLC retention time as measure of hydrophobicity. In kind it is physicochemical. Conditions: used as indicator of total hydrophobicity, SLP1>SLP2>SLP3. The text has this: The cationic properties of synthetic lipopeptides are thought to be related to their antibacterial and hemolytic activities. […] Cyclic lipopeptides are reported to more readily lyse bacterial membranes than linear or branched lipopeptides. […] It has also been reported that the total hydrophobicity of synthetic lipopeptides is inversely related to hemolytic activity, although this conclusion was from data on only 3 related samples [27]. […] The relative hydrophobicity of SLP1, 2, and 3 is SLP1>SLP2>SLP3, as indicated by their HPLC retention times (17.6, 16.7, and 14.5 min, respectively).

A short description of data set [2]: Critical micelle concentration by surface tension (ring method). The settings on record: samples stood 30 min at 22 °C, intersection of two linear regression lines. The format is physicochemical. As to the method:
Surface tensions were measured using the ring method. Samples were freshly prepared in a testing flask and allowed to stand for 30 minutes at 22 °C. Surface tension measurements were made using a surface tensiometer (HLD-LST-II, HENLIDA Co., Ltd, China). Linear regressions of the drop and the flat area were performed separately for the surface tension-concentration curve. The concentration at the intersection of the two lines is the critical micelle concentration (CMC).
The CMC was calculated by measuring the surface tension of each SLP over a range of concentrations. […] Linear regressions were performed independently using the data on the descending part of the curve below the CMC and the equilibrium part above the CMC. The intersection of the linear regression lines corresponds to the CMC (Table 3).
Fig 4 Critical micelle concentrations of the SLPs. CMCs were determined for SDS, surfactin, and SLPs by surface tension. The intersection of the two linear regression lines corresponds to the CMC value, (shown by the dotted lines).

Data set [3] has as its system PEDV. Conditions: cited from earlier work. The text has this:
In summary, we synthesized 10 surfactin analogues and characterized them to identify those with enhanced anti-viral properties. […] SLP5 is therefore a more promising synthetic surfactin analogue. Compared with surfactin, the structure of SLP5 is distinguished by its linear lipopeptide and the additional carboxyl grou ...

In data set [4] the test system is PEDV. As to the kind of experiment: Time of addition assay (viral N protein by western blot, viral RNA by qRT-PCR). In kind it is cell-based, Porcine epidemic diarrhea virus. The settings on record: Vero cells, 1000 PFU PEDV, harvested 12 hpi, SLP5 50 μg/ml, surfactin 20 μg/ml. As to the method: Time of addition assay was performed according to the procedures described, with modifications. Confluent Vero cells in 12-well plates were infected with 1000 PFU of PEDV and incubated for 1 hr at 4 °C to synchronize infection. The inoculum was removed and 1 mL of 37 °C DMEM was added to each well, cells were then placed at 37 °C in a humidified incubator. At the indicated time points, SLP5, surfactin, or dielaidoyl-phosphatidylethanolamine (DEPE, AvantiPolarLipids, Alabaster, AL) was added dropwise to cells or virus to a final concentration of 50 μg/ml, 20 μg/ml, or 5 μg/ml and incubated a further 12 hours at 37 °C. Viral nucleic acid and protein levels in the cells were measured by qRT-PCR and western-blot respectively. The data shown is representative of 3 independent experiments.
Total RNA was extracted from cells using TRIzol Reagent (Invitrogen) according to the manufacturer’s instructions. cDNA was generated by reverse transcription using HiScript TM QRT SuperMix for qPCR (Vazyme) according to the manufacturer’s instructions. PEDV nucleic acid levels were assessed by measuring the viral nucleoprotein (N) using qRT-PCR with the TaKaRa SYBR Green qPCR Kit (TaKaRa). Primer sequences were as follows: PEDV-N-F (sense), 5’-[…]-3’; PEDV-N-R (antisense), 5’-[…]-3’; C-sabaeus-GAPDH-F, 5’-[…]-3’; C-sabaeus-GAPDH-R, 5’-[…]-3’. Gene level was calculated using the comparative Ct method and normalized to the endogenous levels of GAPDH.
Boiled cell lysates were subjected to SDS-PAGE then transferred to PVDF membrane (Roche, Basel, Switzerland) using a semi-dry transfer apparatus (GE, Little Chalfont, Buckinghamshire, UK). Membranes were blocked in 5% non-fat milk in TBS containing 0.01% Tween-20 (TBST) then incubated overnight at 4 °C with anti-PEDV N-protein monoclonal antibody (Median Diagnostics, South Korea) diluted in TBST with 1% BSA. Membranes were washed 30 min in TBST followed by incubation for 1 h at RT with 1:5000 HRP goat anti-mouse IgG antibody (ABGENT, San Diego, CA, USA) then thrice washed for 15 min in TBST. Membranes were incubated with ECL reagent (Thermo, Waltham, MA, USA) and imaged using a ChemiDoc™ system (Bio-Rad, Hercules, CA, USA).
Since SLP5 was the most promising surfactin analogue, we chose it for further study. Time of addition assays were performed to determine whether the SLP5 exerts its anti-PEDV effect at the same stage during infection as surfactin. Since surfactin acts directly on virions, the experiment was designed to examine events early in the infection process. Fig 6A summarizes the experimental plan and the eight treatments tested. Briefly, SLP5, surfactin, or DEPE was added to virus alone, cells alone, or to cells and virus together prior to infection, during virus adsorption, during virus invasion (1 h post infection at 37 °C), or during replication (1–12 hpi). Samples were harvested 12 hours after infection, and analyzed to measure cellular levels of viral protein (Fig 6B and 6C) and viral RNA (Fig 6D). […] Other antiviral mechanisms of SLP5 and surfactin cannot be ruled out since PEDV replication is inhibited to different degrees in some of the other treatment groups.
Fig 6 Time-of-addition experiments. (A) Vero cells were treated with SLP5, surfactin, or DEPE at different time points before, during, and after infection. […] (B) The PEDV nucleoprotein was detected by Western-blot, and (C) quantitated by band intensity relative to the internal control, GAPDH. (D) The PEDV genome was detected by qRT-PCR. […]
Background: A western blot detects proteins with antibodies after separation by electrophoresis.

The mark [5] stands for this setting: 100 PFU PEDV pre-incubated with lipopeptide 10 min at 37 °C, adsorbed to Vero cells 30 min at 4 °C, washed, agar overlay 72 h, 3 biological replicates each in triplicate, mean ± SD, log[inhibitor] vs. response fit.

With `CCCCCCCCCCCCCCCC(=O)N[C@@H](CCC(=O)O)C(=O)N[C@H](C(=O)N[C@H](CC(C)C)C(=O)N[C@@H](C)C(=O)N[C@@H](CC(=O)O)C(=O)N[C@H](CC(C)C)C(=O)N[C@H](C(N)=O)C(C)C)C(C)C` [SLP1] (Palmitoyl-EV[dL]AD[dL]V-NH2), in the data set on PEDV CV777 (72 h), the concentration for a half-maximal effect (EC50) – broadly, the concentration at which the effect is half-maximal – was 8.0 ± 0.3 µg/mL (≈ 8.04 µM). Moreover, in the data set on porcine RBCs, the “Hemolytic activity, result in words” value was “slightly weaker than that of surfactin” and the “CC50 (50% cytotoxicity concentration, hemolysis)” value stood at 52.6 ± 2.3 µg/mL (≈ 52.8 µM). Besides, the “HPLC retention time (relative hydrophobicity)” value in data set [1] was 17.6 min. Also, in data set [2], the CMC is 5.7 µg/mL.

On to `CCCCCCCCCCCCCCCC(=O)N[C@@H](CCC(=O)O)C(=O)N[C@H](C(=O)N[C@H](CC(C)C)C(=O)N[C@@H](CC(=O)O)C(=O)N[C@H](CC(C)C)C(=O)N[C@H](C(N)=O)C(C)C)C(C)C` [SLP2] (Palmitoyl-EV[dL]D[dL]V-NH2), for which the 50% effective concentration (EC50) in the data set on PEDV CV777 (72 h) came out at 5.3 ± 0.5 µg/mL (≈ 5.73 µM). Moreover, in the data set on PEDV CV777 (plaque reduction assay, result in words), the “Anti-PEDV potency compared with surfactin” value is “higher potency than surfactin”. Moreover, the “CC50 (50% cytotoxicity concentration, hemolysis)” value in the data set on porcine RBCs worked out at 33.0 ± 1.6 µg/mL (≈ 35.7 µM). Besides, in data set [1], the “HPLC retention time (relative hydrophobicity)” value is given as 16.7 min. In data set [2], this molecule returned a CMC of 4.2 µg/mL.

For `CCCCCCCCCCCCCCCC(=O)N[C@@H](CCC(=O)O)C(=O)N[C@H](C(=O)N[C@H](CC(C)C)C(=O)N[C@@H](CC(=O)O)C(=O)N[C@H](CC(C)C)C(N)=O)C(C)C` [SLP3] (Palmitoyl-EV[dL]D[dL]-NH2), the EC50 in the data set with PEDV CV777 (setting [5]) was found to be 16.9 ± 1.6 µg/mL (≈ 20.5 µM). For the same molecule, the “CC50 (50% cytotoxicity concentration, hemolysis)” value with porcine RBCs was 69.7 ± 2.6 µg/mL (≈ 84.5 µM). In addition, the “HPLC retention time (relative hydrophobicity)” value in data set [1] was 14.5 min. This molecule yielded a CMC in data set [2] of 6.4 µg/mL.

The molecule Surfactin gave an EC50 with PEDV CV777 (setting [5]) of 11.4 ± 0.7 µg/mL. Moreover, the “Protection of piglets from PEDV challenge” value with PEDV [3] is on record as “protect piglets from PEDV challenge”. The “PEDV replication (nucleic acid and protein levels), reagent present throughout the experiment (treatment group 2) or at any stage” value in the data set with PEDV [4] (DEPE 5 μg/ml, 3 independent experiments) is “little PEDV replication occurs”. In addition, in the data set with PEDV [4] (same as group 2 (little replication)), the “PEDV replication, treatment group 5” value is “act directly on the virus”. For the same molecule, the CMC in data set [2] worked out at 12.1 µg/mL.
